Laboratory results from patent US20150315188A1, “COMPOUNDS AND METHODS FOR TREATMENT OF HYPERTENSION” (MEDIVATION TECHNOLOGIES, INC., priority 2012, published 2015).

What was measured:
Design in all cases: purchased Milipore (Millipore)
[1] = molecular target: T1, Human adrenergic α2B receptor (Homo sapiens, UniProt P18089); assay: Radioligand binding, adrenergic α2B (Protocol Group B); conditions: Protocol Group B; for Percentage inhibition of ligand binding, Adrenergic α2B (10 nM) / inhibition at 0.01 µM: 10 nM compound; for Percentage inhibition of ligand binding, Adrenergic α2B (10 nM): 0.01 µM; for Percentage inhibition of ligand binding, Adrenergic α2B (30 nM) / inhibition at 0.03 µM: 30 nM compound; for Percentage inhibition of ligand binding, Adrenergic α2B (30 nM): 0.03 µM; for Percentage inhibition of ligand binding, Adrenergic α2B (0.1 μM) / inhibition at 0.1 µM: 0.1 μM compound; for inhibition at 0.01 µM: read-out: Percentage inhibition of ligand binding, Adrenergic α2B (10 nM); for inhibition at 0.03 µM: read-out: Percentage inhibition of ligand binding, Adrenergic α2B (30 nM); for inhibition at 0.1 µM: read-out: Percentage inhibition of ligand binding, Adrenergic α2B (0.1 μM)
T1 sequence (P18089 1-450): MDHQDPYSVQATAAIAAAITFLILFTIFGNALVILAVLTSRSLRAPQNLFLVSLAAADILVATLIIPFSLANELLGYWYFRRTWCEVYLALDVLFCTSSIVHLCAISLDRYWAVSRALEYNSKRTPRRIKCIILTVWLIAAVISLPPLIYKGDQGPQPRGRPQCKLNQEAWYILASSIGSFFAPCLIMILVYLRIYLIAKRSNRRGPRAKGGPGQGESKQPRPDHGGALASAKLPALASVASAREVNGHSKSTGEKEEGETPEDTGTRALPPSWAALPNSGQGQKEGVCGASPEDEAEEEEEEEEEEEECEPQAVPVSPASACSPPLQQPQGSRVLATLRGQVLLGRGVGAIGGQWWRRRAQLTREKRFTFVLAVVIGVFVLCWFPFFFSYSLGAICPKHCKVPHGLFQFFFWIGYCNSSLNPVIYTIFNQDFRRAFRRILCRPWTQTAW
Method: To evaluate the activity of compounds in radioligand binding assays, Human adrenergic α2B receptor obtained from recombinant cell membrane from Milipore. Binding experiments were carried out in Tris-HCl buffer (50 mM Tris-HCl buffer, pH 7.4, 5 mM Mgcl2, 1 mM Cacl2, 0.2% BSA) as recommended by Milipore. […] Non-specific binding was estimated in the presence of 10 μM Rauwolscine. […] Compounds were screened at various concentrations, using 1% DMSO as vehicle. Biochemical assay results are presented as the percent Inhibition of specific binding in Table B1b, or estimated Ki values in Table B1c.

[2] = molecular target: T2, Human adrenergic α2A receptor (Homo sapiens, UniProt P08913); assay: Radioligand binding, adrenergic α2A (Protocol Group B); conditions: Protocol Group B; for Percentage inhibition of ligand binding, Adrenergic α2A (0.1 μM) / inhibition at 0.1 µM: 0.1 μM compound; for Percentage inhibition of ligand binding, Adrenergic α2A (0.3 μM) / inhibition at 0.3 µM: 0.3 μM compound; for inhibition at 0.1 µM: read-out: Percentage inhibition of ligand binding, Adrenergic α2A (0.1 μM); for inhibition at 0.3 µM: read-out: Percentage inhibition of ligand binding, Adrenergic α2A (0.3 μM)
T2 sequence (P08913 1-465): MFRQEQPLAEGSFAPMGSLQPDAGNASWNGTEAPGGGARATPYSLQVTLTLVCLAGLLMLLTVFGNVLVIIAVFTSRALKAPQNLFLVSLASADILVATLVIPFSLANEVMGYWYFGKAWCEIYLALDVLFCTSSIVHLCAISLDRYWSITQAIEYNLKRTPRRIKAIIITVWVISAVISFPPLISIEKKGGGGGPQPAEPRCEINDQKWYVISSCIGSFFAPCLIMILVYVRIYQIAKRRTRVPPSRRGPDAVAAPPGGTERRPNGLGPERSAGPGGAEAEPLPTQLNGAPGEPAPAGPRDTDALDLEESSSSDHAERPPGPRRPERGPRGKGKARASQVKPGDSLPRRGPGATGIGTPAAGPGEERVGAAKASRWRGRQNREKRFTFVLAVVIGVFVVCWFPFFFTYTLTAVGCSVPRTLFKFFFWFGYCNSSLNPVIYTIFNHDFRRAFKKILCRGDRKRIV
Method: To evaluate the activity of compounds in radioligand binding assays, Human adrenergic α2A receptor obtained from recombinant cell membrane from Milipore. Binding experiments were carried out in Tris-HCl buffer (50 mM Tris-HCl buffer, pH 7.4, 5 mM Mgcl2, 1 mM Cacl2, 0.2% BSA) as recommended by Milipore. Compounds were incubated with 2 nM [^3H]MK-912 for 60 min at 25° C. Non-specific binding was estimated in the presence of 10 μM Rauwolscine. Receptor proteins were harvested on 0.33% PEI(poly-ethylenemine) soaked GFC filter mat, the specifically bound [^3H]MK-912 were counted to determine total binding. Compounds were screened at various concentrations, using 1% DMSO as vehicle. percent inhibition of specific binding was determined. Biochemical assay results are presented as the percent Inhibition of specific binding in Table B1b, or estimated Ki values in Table B1c.

[3] = molecular target: T3, Human adrenergic α1B receptor (Homo sapiens, UniProt P35368); assay: Radioligand binding, adrenergic α1B (Protocol Group B); conditions: Protocol Group B; for Percentage inhibition of ligand binding, Adrenergic α1B (0.1 μM) / inhibition at 0.1 µM: 0.1 μM compound; for Percentage inhibition of ligand binding, Adrenergic α1B (0.3 μM) / inhibition at 0.3 µM: 0.3 μM compound; for inhibition at 0.1 µM: read-out: Percentage inhibition of ligand binding, Adrenergic α1B (0.1 μM); for inhibition at 0.3 µM: read-out: Percentage inhibition of ligand binding, Adrenergic α1B (0.3 μM)
T3 sequence (P35368 1-520): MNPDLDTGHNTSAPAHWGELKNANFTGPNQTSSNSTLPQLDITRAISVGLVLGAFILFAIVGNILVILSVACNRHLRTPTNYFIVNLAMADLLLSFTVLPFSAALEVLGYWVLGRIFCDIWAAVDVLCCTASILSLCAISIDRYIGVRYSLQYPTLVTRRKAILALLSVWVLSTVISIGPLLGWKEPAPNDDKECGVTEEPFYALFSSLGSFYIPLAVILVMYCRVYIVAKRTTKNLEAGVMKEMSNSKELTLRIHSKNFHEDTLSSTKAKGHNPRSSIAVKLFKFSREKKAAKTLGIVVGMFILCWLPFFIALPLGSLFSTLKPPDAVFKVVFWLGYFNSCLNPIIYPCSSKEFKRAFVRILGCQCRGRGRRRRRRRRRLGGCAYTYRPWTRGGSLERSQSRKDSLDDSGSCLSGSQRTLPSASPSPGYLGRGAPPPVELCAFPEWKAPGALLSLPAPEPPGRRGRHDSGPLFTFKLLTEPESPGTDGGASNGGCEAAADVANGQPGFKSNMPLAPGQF
Method: To evaluate the activity of compounds in radioligand binding assays, Human adrenergic α1B receptor obtained from recombinant cell membrane from Milipore. Binding experiments were carried out in Tris-HCl buffer (50 mM Tris-HCl buffer, pH 7.4, 10 mM Mgcl2, 1 mM EDTA) as recommended by Milipore. Compounds were incubated with 0.3 nM [^3H]Prazosin for 60 min at 25° C. Non-specific binding was estimated in the presence of 10 μM prazosin. Receptor proteins were harvested on 0.33% PEI(poly-ethylenemine) soaked GFC filter mat, the specifically bound [^3H]Prazosin were counted to determine total binding. Compounds were screened at various concentrations, using 1% DMSO as vehicle. percent inhibition of specific binding was determined. Biochemical assay results are presented as the percent Inhibition of specific binding in Table B1b, or estimated Ki values in Table B1c.

Row | SMILES | Percentage inhibition of ligand binding, Adrenergic α2B (10 nM) [1] [%] | Percentage inhibition of ligand binding, Adrenergic α2B (30 nM) [1] [%] | Percentage inhibition of ligand binding, Adrenergic α2B (0.1 μM) [1] [%] | Percentage inhibition of ligand binding, Adrenergic α2A (0.1 μM) [2] [%] | Percentage inhibition of ligand binding, Adrenergic α2A (0.3 μM) [2] [%] | Percentage inhibition of ligand binding, Adrenergic α1B (0.1 μM) [3] [%] | Percentage inhibition of ligand binding, Adrenergic α1B (0.3 μM) [3] [%] | inhibition at 0.01 µM [1] [%] | inhibition at 0.03 µM [1] [%] | inhibition at 0.1 µM [1] [%] | inhibition at 0.1 µM [2] [%] | inhibition at 0.3 µM [2] [%] | inhibition at 0.1 µM [3] [%] | inhibition at 0.3 µM [3] [%]
1 | CC(O)(Cn1c2c(c3cc(Cl)cc(F)c31)C1CCCN1CC2)c1cccnc1 (single isomer, unassigned) [53c] | −4 | 4 | 1 | −10 | −15 | 1 | −6 | – | – | – | – | – | – | –
2 | Cc1cc(F)cc2c3c(n(CC(C)(O)c4cccnc4)c12)CCN1CCCC31 (stereo not shown) [75b] | – | – | – | – | – | – | – | -10 | -4 | -1 | -3 | 5 | -1 | 1
3 | Cc1ccc2c(c1)c1c(n2CC(C)(O)c2ccncc2)CC2CCCN2C1 (single isomer, unassigned) [37d] | 15 | 36 | 68 | 4 | 17 | 5 | 14 | – | – | – | – | – | – | –
4 | Cc1ccc2c(c1)c1c(n2CC(C)(O)c2ccc(F)cc2)CC2CCC1N2C (single isomer, unassigned) [102c] | −14 | −5 | −8 | −12 | −5 | −4 | 5 | – | – | – | – | – | – | –
5 | Cc1cc(C)c2c(c1)c1c(n2CC(C)(O)c2ccncc2)CCN2CCCC12 (single isomer, unassigned) [19c] | −13 | −12 | 6 | −7 | 1 | −5 | −1 | – | – | – | – | – | – | –
6 | Cc1cc(F)c2c(c1)c1c(n2CC(C)(O)c2ccncc2)CC2CCCN2C1 (single isomer, unassigned) [62a] | 21 | 45 | – | 14 | – | 22 | 43 | – | – | 72 | – | 30 | – | –
7 | OC(Cn1c2c(c3cc(F)cc(F)c31)C1CCCN1CC2)c1ccncc1 (single isomer, unassigned) [144a] | – | 73 | – | 16 | – | 28 | – | – | – | – | – | – | – | –
8 | Cc1ccc2c(c1)c1c(n2CC(C)(O)c2ccc(F)cc2)CN2CCC1C2 (single isomer, unassigned) [134a] | – | −8 | – | −5 | – | −6 | – | – | – | – | – | – | – | –
9 | Cc1ccc2c(c1)c1c(n2CC(C)(O)c2cccnc2)CC2CCCN2C1 (stereo not shown) [41b] | −14 | −14 | −2 | −16 | −5 | −11 | −4 | – | – | – | – | – | – | –
10 | CC(O)(Cn1c2c(c3cc(F)cc(Cl)c31)C1CCCN1CC2)c1cccnc1 (single isomer, unassigned) [89a] | −9 | −9 | – | 23 | – | 12 | – | – | – | – | – | 9 | – | 13
11 | Cc1ccc2c(c1)c1c(n2CC(O)c2cccnc2)C(F)(F)CN(C)C1 (stereo not shown) [compound 30, 2-(4,4-difluoro-2,8-dimethyl-3,4-dihydro-1H-pyrido[4,3-b]indol-5(2H)-yl)-1-(pyridin-3-yl)ethanol] | – | – | – | – | – | – | – | 13 | 8 | 12 | -18 | -5 | 0 | 17
12 | Cc1ccc2c(c1)c1c(n2CC(C)(O)c2ccncc2)CC2CCCN2C1 (single isomer, unassigned) [37b] | 25 | 48 | 75 | 15 | 17 | 40 | 68 | – | – | – | – | – | – | –
13 | Cc1ccc2c(c1)c1c(n2CC(C)(O)c2ccc(N(C)C)nc2)CCN(C)C1 (stereo not shown) [compound 39, 1-(2,8-dimethyl-3,4-dihydro-1H-pyrido[4,3-b]indol-5(2H)-yl)-2-(6-(dimethylamino)pyridin-3-yl)propan-2-ol] | 11 | – | 64 | 17 | 19 | – | 34 | – | 35 | – | – | – | 17 | –
